Converted amounts (≈) assume the structure as drawn. The source made the active and inactive calls. The calls are words filed in the database; no cut-off is given here. Bounds are passed on as bounds.

The nature of data set [1]: Solubility of the compound at pH 5 by shake flask method. It counts as physicochemical. As to conditions: buffer.
Data set [2] is described as follows: Induction of contractility in Sprague-Dawley rat Cardiomyocytes assessed as change in fractional shortening at 2 uM. It counts as functional, Cardiac muscle cell.
A short description of data set [3]: Ratio of extraction in human Liver microsomes. It counts as ADME, Microsome. The settings on record: read-out: ERH. (Liver microsomes are a subcellular fraction often used to study metabolism.)
The species entered for data set [4] is Rattus norvegicus. In words: Activation of Sprague-Dawley rat myosin in cardiomyocytes assessed as compound concentration resulting in 40% increase in ATPase activity at calcium concentrations that produced 25-50% of maximum calcium dependent activation. It counts as cell-based.
The target of a further data set is T1, CYP1A2 (Homo sapiens, UniProt P05177).
T1 sequence (P05177 whole entry): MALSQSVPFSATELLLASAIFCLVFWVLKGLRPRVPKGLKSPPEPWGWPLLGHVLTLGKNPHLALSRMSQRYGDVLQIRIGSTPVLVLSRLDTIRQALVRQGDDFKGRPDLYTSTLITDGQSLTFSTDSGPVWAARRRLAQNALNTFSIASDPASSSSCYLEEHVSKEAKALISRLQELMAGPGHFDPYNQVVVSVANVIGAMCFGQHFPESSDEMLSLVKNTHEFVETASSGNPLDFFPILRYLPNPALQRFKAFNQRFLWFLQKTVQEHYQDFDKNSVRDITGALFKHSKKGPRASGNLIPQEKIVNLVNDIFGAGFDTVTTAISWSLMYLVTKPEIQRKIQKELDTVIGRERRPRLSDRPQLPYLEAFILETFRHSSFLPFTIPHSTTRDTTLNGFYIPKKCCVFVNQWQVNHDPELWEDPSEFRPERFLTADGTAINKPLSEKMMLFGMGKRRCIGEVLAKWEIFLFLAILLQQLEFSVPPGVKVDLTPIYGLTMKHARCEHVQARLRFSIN
As to the kind of experiment: Inhibition of CYP1A2 at 10 uM. It counts as ADME.

Data set [5] is described as follows: Plasma protein binding in Sprague-Dawley rat. It counts as ADME, cell-free. As to conditions: read-out: PPB (converted).
The test system of a further data set is Aorta. In words: Inhibition of vasodilation in Sprague-Dawley rat aortic ring. It counts as functional.
The nature of data set [6]: Induction of contractility in Sprague-Dawley rat Cardiomyocytes assessed as change in fractional shortening at 0.8 uM. It counts as functional, Cardiac muscle cell.
The next data set concerns the target T2, Cytochrome P450 1A2 (Homo sapiens, UniProt P05177).
T2 sequence (P05177 whole entry): T1 sequence (P05177 whole entry)
As to the kind of experiment: Inhibition of CYP1A2. It counts as ADME.

A short description of data set [7]: Kinetic solubility of the compound. It counts as physicochemical.
The nature of data set [8]: Induction of contractility in Sprague-Dawley rat Cardiomyocytes assessed as change in increase in fractional shortening at 2 uM. It counts as functional, Cardiac muscle cell.
Data set [9] is filed under the species Bos taurus. In words: Activation of bovine myosin in cardiac sarcomere assessed as compound concentration resulting in 40% increase in ATPase activity at calcium concentrations that produced 25-50% of maximum calcium dependent activation at 100 uM as single dose.
Data set [10] is filed under the species Rattus norvegicus. In words: Activation of myosin in Sprague-Dawley rat cardiomyocytes assessed as compound concentration resulting in 40% increase in ATPase activity at calcium concentrations that produced 25-50% of maximum calcium dependent activation. It counts as cell-based.
For data set [11], the species on record is Bos taurus. As to the kind of experiment: Activation of bovine uterus myosin in smooth muscle assessed as compound concentration resulting in 40% increase in ATPase activity at calcium concentrations that produced 25-50% of maximum calcium dependent activation at 100 uM as single dose.
Another data set is filed under the species Oryctolagus cuniculus. As to the kind of experiment: Activation of rabbit myosin in skeletal muscle assessed as compound concentration resulting in 40% increase in ATPase activity at calcium concentrations that produced 25-50% of maximum calcium dependent activation at 100 uM as single dose.
The species named for a further data set is Gallus gallus. In words: Activation of chicken gizzard myosin in smooth muscle assessed as compound concentration resulting in 40% increase in ATPase activity at calcium concentrations that produced 25-50% of maximum calcium dependent activation at 100 uM as single dose.
The nature of data set [12]: Induction of contractility in Sprague-Dawley rat Cardiomyocytes assessed as change in fractional shortening at 10 uM. It counts as functional, Cardiac muscle cell.
A short description of data set [13]: Induction of contractility in Sprague-Dawley rat Cardiomyocytes assessed as change in fractional shortening at 0.4 uM. It counts as functional, Cardiac muscle cell.
Data set [14] is described as follows: Induction of contractility in Sprague-Dawley rat Cardiomyocytes assessed as change in fractional shortening at 0.2 uM. It counts as functional, Cardiac muscle cell.
Data set [15] can be described thus: Volume of distribution in Sprague-Dawley rat. As to conditions: in vivo. It counts as ADME, organism-based.
A short description of data set [16]: Clearance in Sprague-Dawley rat. As to conditions: in vivo. It counts as ADME, organism-based.
A short description of data set [17]: Bioavailability in Sprague-Dawley rat. It counts as ADME, organism-based. The settings on record: in vivo.
The nature of data set [18]: Volume of distribution in Beagle dog heart failure model. It counts as ADME, organism-based, Canis lupus familiaris. The settings on record: in vivo.
Data set [19] in a line: Bioavailability in Beagle dog heart failure model. It counts as ADME, organism-based, Canis lupus familiaris. The settings on record: in vivo.
The nature of data set [20]: Clearance in Beagle dog heart failure model. It counts as ADME, organism-based, Canis lupus familiaris. The settings on record: in vivo.

Regarding `COC(=O)N1CCC[C@@H](Oc2cc(F)cc(NC(=O)Nc3cccnc3)c2)C1`, in data set [1], the thermodynamic solubility – broadly, the concentration in solution at equilibrium with solid – turned out to be 18 µg/mL (≈ 46.3 µM). Besides, the Activity in data set [2] was 123%; in the data set filed under Rattus norvegicus [4], 3.6 µM. For the same compound, the hepatic extraction ratio in data set [3] was 0.5. Further, 10 µM produced 97% inhibition against CYP1A2. Moreover, in data set [5], the fraction unbound is 0.096. Besides, the R50 in the data set with Aorta amounted to 8 µM.

Compound `COC(=O)N1CCN(Cc2cc(F)cc(NC(=O)Nc3ccc(C)nc3)c2)CC1` yielded a thermodynamic solubility in [1] of 4600 µg/mL (≈ 11500 µM). Moreover, the Activity in data set [6] amounted to 138%; in the data set filed under Rattus norvegicus [4], 1.7 µM. The hepatic extraction ratio in [3] was below 0.2. The half-maximal inhibitory concentration (IC50) – broadly, the concentration needed to halve the response being measured – on Cytochrome P450 1A2 was above 10 µM. Moreover, in data set [5], the fraction unbound was 0.103. In addition, the R50 in the data set on Aorta was above 25 µM.

With `O=C(Nc1cc(F)cc(Oc2cccnc2)c1)c1ccc(F)cc1`, the Activity in data set [2] came to 104%; in the data set filed under Rattus norvegicus [4], 2.5 µM. For the same compound, in data set [5], the fraction unbound is 0.079. For the same compound, in data set [7], the kinetic solubility (in general, solubility judged after dilution from a stock solution rather than from solid) was found to be 5.3 µg/mL (≈ 16.2 µM).

Take `O=C(Nc1cccnc1)Nc1cc(F)cc(Oc2cccnc2)c1`: the solubility (thermodynamic) in data set [1] worked out at 28 µg/mL (≈ 86.3 µM). Besides, the Activity stood at 127% in data set [2] and 1.1 µM in the data set filed under Rattus norvegicus [4]. Also, in [5], the fraction unbound is 0.071. This compound showed a kinetic solubility in data set [7] of 46 µg/mL (≈ 142 µM).

For the compound `O=C(Nc1cc(Oc2cccnc2)cc([N+](=O)[O-])c1)c1ccc(F)cc1`, the results for the Activity (in [8]; in the data set filed under Rattus norvegicus [4]) were 135% and 1.4 µM, respectively. Also, the outcome in the data set listed under Bos taurus [9] and in the data set filed under Rattus norvegicus [10] was Active. For the same compound, the outcome in the data set listed under Bos taurus [11], in the data set filed under Oryctolagus cuniculus and in the data set filed under Gallus gallus was inactive. Moreover, the solubility (kinetic) in data set [7] is below 1 µg/mL.

Regarding `COc1ccc(NC(=O)Nc2cc(F)cc(Oc3cccnc3)c2)cn1`, the results for the Activity (in data set [2]; in the data set filed under Rattus norvegicus [4]) were 134% and 1.4 µM, respectively. Moreover, in [5], the fraction unbound was 0.075. The compound also yielded a kinetic solubility in data set [7] of 28 µg/mL (≈ 79 µM).

The compound `CC(=O)N1CCC[C@H](Oc2cc(F)cc(NC(=O)Nc3cccnc3)c2)C1` registered a solubility (thermodynamic) in data set [1] of 550 µg/mL (≈ 1480 µM). For the same compound, the Activity in the data set filed under Rattus norvegicus [4] was determined as 7.3 µM; in [12], 122%. 10 µM produced 99% inhibition against CYP1A2. Moreover, in [5], the fraction unbound was 0.175. The same compound yielded an R50 in the data set with Aorta above 25 µM.

`CN(C)S(=O)(=O)N1CC[C@@H](Oc2cc(F)cc(NC(=O)Nc3cccnc3)c2)C1`: the thermodynamic solubility in [1] came out at 13 µg/mL (≈ 30.7 µM). The hepatic extraction ratio in [3] was 0.9. In addition, at Cytochrome P450 1A2, it took 0.06 µM to reach half-maximal inhibition (IC50). Moreover, the Activity in the data set filed under Rattus norvegicus [4] came to 0.7 µM; in data set [13], 137%. Moreover, the fraction unbound in data set [5] is 0.112. In the data set on Aorta, the R50 is above 25 µM.

In turn, `CC(=O)N1CCC[C@@H](Oc2cc(F)cc(NC(=O)Nc3ccc(C)nc3)c2)C1` displayed a thermodynamic solubility in [1] of 130 µg/mL (≈ 336 µM). Moreover, the figures for the Activity (in data set [2]; in the data set listed under Rattus norvegicus [4]) were 140% and 2.5 µM, respectively. Further, in [3], the hepatic extraction ratio is 0.6. Further, the IC50 at Cytochrome P450 1A2 was above 10 µM. For the same compound, the R50 in the data set with Aorta came to 2.4 µM.

On to `O=C(Nc1cccc(Oc2cccnc2)c1)c1ccc(F)cc1`, for which, in the data set filed under Rattus norvegicus [4], the Activity was 32 µM. In data set [7], this compound showed a kinetic solubility of 17 µg/mL (≈ 55.1 µM).

`COC(=O)N1CCN(Cc2cccc(NC(=O)Nc3ccc(C)nc3)c2)CC1` yielded a solubility (thermodynamic) in data set [1] of 4000 µg/mL (≈ 10400 µM). Further, the Activity in data set [6] stood at 126%; in the data set listed under Rattus norvegicus [4], 4.5 µM. Besides, in data set [3], the hepatic extraction ratio was below 0.2. The same compound had an IC50 against Cytochrome P450 1A2 above 10 µM. Also, the fraction unbound in data set [5] is 0.128. This compound showed an R50 in the data set with Aorta of 15 µM.

The compound `COC(=O)N1CCC(Oc2cc(F)cc(NC(=O)Nc3ccc(C)nc3)c2)CC1` registered a solubility (thermodynamic) in data set [1] of 17 µg/mL (≈ 42.2 µM). Moreover, the Activity in data set [2] was determined as 123%; in the data set listed under Rattus norvegicus [4], 0.8 µM. Moreover, the hepatic extraction ratio in data set [3] stood at 0.3. The IC50 against Cytochrome P450 1A2 is above 10 µM. In addition, the fraction unbound in data set [5] was 0.065. The compound further showed an R50 with Aorta of 11 µM.

In data set [1], `CN(C)S(=O)(=O)N1CCC[C@@H](Oc2cc(F)cc(NC(=O)Nc3cccnc3)c2)C1` had a thermodynamic solubility of 40 µg/mL (≈ 91.4 µM). For the same compound, the Activity in data set [6] amounted to 126%; in the data set listed under Rattus norvegicus [4] it was 0.6 µM. The fraction unbound in data set [5] is 0.079. The R50 in the data set on Aorta came to 6.6 µM.

`O=C(Nc1ccc(F)cc1)Nc1cc(F)cc(Oc2cccnc2)c1`: the Activity was determined as 121% in [2] and 1.8 µM in the data set filed under Rattus norvegicus [4]. The same compound registered a kinetic solubility in data set [7] of 1.1 µg/mL (≈ 3.22 µM).

Take `COC(=O)N1CCN(Cc2cccc(NC(=O)Nc3ccc(C)nc3)c2F)CC1` [OMECAMTIV MECARBIL]: the thermodynamic solubility in data set [1] stood at 2200 µg/mL (≈ 5480 µM). In addition, the values for the Activity (in data set [14]; in the data set filed under Rattus norvegicus [4]) were 123% and 0.58 µM, respectively. For the same compound, the Vd (usually the apparent volume that relates the amount in the body to the concentration in plasma or blood) in data set [15] amounted to 3.5 L/kg; in data set [18], 3.6 L/kg. Besides, the clearance (commonly the rate of elimination divided by the concentration) in data set [16] is 22 mL/min/kg; in data set [20], 7.2 mL/min/kg. Also, the hepatic extraction ratio in data set [3] was below 0.2. At Cytochrome P450 1A2, this compound registered an IC50 above 10 µM. For the same compound, the bioavailability (in general, the share of a dose that reaches the circulation, judged against a reference dose that is usually intravenous) in [17] was determined as 100%; in data set [19], 80%. Moreover, in data set [5], the fraction unbound is 0.204. Besides, the R50 with Aorta was above 25 µM.

For `COc1ccc(NC(=O)Nc2cc(F)cc(Oc3cccnc3)c2)cc1`, the values for the Activity (in data set [2]; in the data set filed under Rattus norvegicus [4]) were 139% and 0.7 µM, respectively. The fraction unbound in [5] is 0.049. The compound also had a kinetic solubility in data set [7] below 1 µg/mL.

`CC(=O)N1CCC[C@@H](Oc2cc(F)cc(NC(=O)Nc3cccnc3)c2)C1` had a thermodynamic solubility in [1] of 390 µg/mL (≈ 1050 µM). The results for the Activity (in data set [2]; in the data set filed under Rattus norvegicus [4]) were 129% and 2.5 µM, respectively. Also, the hepatic extraction ratio in data set [3] amounted to 0.5. On Cytochrome P450 1A2, this compound gave a half-maximal inhibitory concentration (IC50) of 0.08 µM. The fraction unbound in data set [5] is 0.175. The compound further had an R50 in the data set with Aorta of 1.7 µM.

The values are drawn from ChEMBL document CHEMBL1799997, “Discovery of omecamtiv mecarbil the first, selective, small molecule activator of cardiac Myosin” (ACS Med Chem Lett, 2010).
